Assay results from US5795899A, “Soluble salts of 4-amino-2-(4,4-dimethylimidazolidin-2-on-1-yl) pyrimidine-5-carboxylic acid N-methyl-N-(3-trifluoromethylphenyl)-amide, a process for the preparation thereof, the use thereof as pharmaceuticals and starting materials” (Hoechst Aktiengesellschaft, priority 1992, dated 1998).

Key:
physchem = conditions: water
[1] = tested on: LDL receptor mRNA in human hepatocytoma cell line HepG2; test: LDL receptor mRNA expression on HepG2 cells (Northern blot); assay type: cell-based; conditions: FIG. 2
Protocol: The HepG2 cells were previously incubated in MEM standard medium which contained 10% fetal calf serum with and without hydrochloride of the compound I (10^-6 M) for 16 hours.
Lipoprotein-deficient serum (LPDS) was in this case prepared by ultracentrifugation by a standard process (Goldstein, J. L., Basu, S. K and Brown, M. S., Methods Enzymol. 98, 241 (1983)). The MRNA in the […] was prepared in analogy to the method described above.
The mRNA was prepared by the method described by Chomczynski, P. and Sacchi, N. in Anal. Biochem. 162, 156 (1987). […] The filters were subsequently exposed on Cronex 4 films (Dupont) in the presence of an intensifying screen at -70° C. overnight or for up to 14 days, and the hybridization signals were quantified from the intensity of blackening of the film using a commercially available laser densitometer. Subsequently, the quotient was determined from the intensity of the LDL receptor band and of the actin band as internal standard to correct for variations in yield. […]

[2] = tested on: mouse leukemia cells, L 1210; test: MTT assay, inhibition of cell proliferation, L1210; assay type: cell-based; conditions: 72 hours incubation
Protocol: (§1) The reduced inhibitory effect on cell proliferation was tested on exponentially growing animal (mouse leukemia cells, L 1210) and human (bronchial carcinoma cells, A 549; colon carcinoma cells, HT 29) tumor cells. This entailed the tumor cells being incubated in RPMI standard medium with various concentrations of the test substances for 72 hours. Cell incubations only in fresh medium served as control. Incubations were set up in quadruplet. […] After incubation for a further 7 to 24 hours, the cell supernatant was carefully removed and the formazan dye in the cells was solubilized by adding DMSO and measured quantitatively by photometry at 492 nm. The ratio of the extinction of the substance incubations to the control incubation was quantified. The coefficient of variation in each incubation series was less than 15%. The following Table 6 indicates the IC50 values (IC50 [μg/ml] is the concentration of the test substance per ml which is necessary for 50% inhibition) from these investigations.

[3] = tested on: colon carcinoma cells, HT 29; test: MTT assay, inhibition of cell proliferation, HT 29; assay type: cell-based; conditions: Homo sapiens, 72 hours incubation
Protocol: as §1

[4] = tested on: bronchial carcinoma cells, A 549; test: MTT assay, inhibition of cell proliferation, A 549; assay type: cell-based; conditions: Homo sapiens, A549; 72 hours incubation
Protocol: as §1

[5] = tested on: tumor cells (L 1210, A 549, HT 29); test: Cell proliferation inhibition (MTT assay), overall statement; assay type: cell-based, mouse and human
Protocol: as §1

In the case of CN(C(=O)c1cnc(N2CC(C)(C)NC2=O)nc1N)c1cccc(C(F)(F)F)c1.Cl [Compound I as hydrochloride, 4-amino-2-(4,4-dimethyl-2-oxo-1-imidazolidinyl)pyrimidine-5-carboxylic acid N-methyl-N-(3-trifluoromethylphenyl)amide hydrochloride], the solubility (physchem) is reported as 430 mg/mL, the “Overinduction of LDL receptor mRNA in lipoprotein-deficient serum compared with whole serum” value ([1]; 10^-6 M, 16 hours) is reported as “further by the same factor as was observed on stimulation in whole serum” and the “Dependence of LDL receptor mRNA stimulation on cholesterol supply level” value ([1]; whole serum and lipoprotein-deficient serum) is reported as “does not depend on the cholesterol "supply level"”. The IC50 [2] was 13.4 µg/mL, the “Solubility in water (in words)” value was “good solubility” and the “1 part by mass dissolves in . . . parts of H2 O” value (Table 2, Temp. [°C]: hydrochloride 25.0, nitrate 23.5, p-toluenesulfonate 23.2, hydrogen (R,R)-tartrate 24.6, free base 24.8) was 1.33 parts of H2 O. The IC50 [3] was over 100 µg/mL, the IC50 [4] was over 100 µg/mL and the “Proliferation inhibition compared with imanixil (HOE 402) / its hydrochloride (in words)” value [5] was “must be given at a considerably higher dose in order to have the same proliferation-inhibiting effect”.
